# “And” between values parts separate entries of the source, which are not always exact repeats. Identical values can stand only once. Like-named read-outs stand apart in the source and are kept apart here.
# Assays:
# [1] = UV-Vis absorption, fluorescence and quantum yield; assay type: physicochemical; settings: for Quantum Yield (PBS): λex = 479 nm (TQ Green), 406 nm (TQ Green-GSH); for Quantum Yield (Methanol): Rhodamine 123 as standard
# Description: TQ Green absorbs at 479 nm and fluoresces at 590 nm (λex=488 nm, FIG. 3). The extinction coefficients of TQ Green and TQ Green-GSH at their maximum absorption wavelengths are (2.3±0.2)×10^4 M^−1·cm^−1 (a, =479 nm, Table 2) and (1.6±0.2)×10^4 M^−1·cm^−1 (λmax=407 nm, Table 1), respectively. Upon reacting with GSH, the Abs and Fl peaks shift hypsochromically to 406 and 463 nm (λex=405 nm), respectively. The Abs of TQ Green and TQ Green-GSH (the adduct between TQ Green and GSH) are close to 488 and 405 nm, respectively, which are two commonly used laser wavelengths for confocal microscopes. […]
# NMR spectra were recorded on a Varian NMR (^1H at 400 MHz) spectrometer. Chemical shifts (δ) were given in ppm with reference to solvent signals [^1H NMR: CDCl3 (7.26), CD3OD (3.31)]. UV-Vis measurements were performed with 2×10 mm quartz cuvette in Cary 60 UV-is Spectrometer. Fluorescence measurements were performed with the same quartz cuvette in Cary Eclipse Fluorescence Spectrophotometer with an excitation slit of 5 nm, an emission slit of 10 nm and PMT at 650 V. Flash chromatography was performed on a Teledyne ISCO CombiFlashRf200. Olympus FV1000 laser scanning confocal microscope system was used for cell imaging. ESI mass spectrometry was measured on a BrukerMS microTOF ESI, at the Shared Equipment Authority at Rice University. Flow cytometry was performed on BD LSR II Flow Cytometer at BCM core facilities.
# As summarized in Table 5, quantum yields of synthesized GSH probes and a GSH adduct with Rhodamine 123 as the standard were analyzed. Quantum yields were determined using a comparative method described previously. The bromine atom on the phenyl ring potentially enhances the push-pull effect of the coumarin-based fluorophore, thus increases the quantum yield.
# [2] = Equilibrium (dissociation constant) of probe and GSH reaction, UV-Vis/fluorescence; assay type: binding
# Protocol: Applicants also determined Keq between TQ Green and GSH and the relationship of the ratiometric change as a function of GSH concentration. Kd′ is the apparent dissociation constant for the reaction between TQ Green and GSH. The following equation can be derived:
# Plotting (R−Rmin)/(Rmax−R) as a function of GSH concentration afforded a superb linear relationship with r^2=0.999 (FIGS. 6-7).
# TQ Green was dissolved in PBS buffer (10 mM, pH 7.4) containing 1% DMSO with concentration at 32 μM. GSH was dissolved in the same PBS buffer with concentration from 0-80 mM. Above solutions were mixed at 1:1 ratio. All solutions were protected with nitrogen and stored in glove box to prevent any oxygen entering the solution. Samples of all solutions were taken out at 1, 18, 72, and 144 hours after mixing. UV-Vis and fluorescence were measured for all solutions.
# Compounds 3b-d were dissolved in DMSO (10 mM) and 1 eq of 2 M β-mercaptoethanol (BME) was added. Compounds 3a and TQ Green were dissolved in PBS buffer (10 mM, pH 7.4) with 1% DMSO. GSH solution was added to reach a final concentration of 80 mM with compound 3a at 10 μM and TQ Green at 16 μM, respectively. All solutions were then monitored continuously with UV-Vis and fluorimeter for 2 hours (Table 1).
# [3] = target: BSA (Bos taurus, UniProt P02769); assay: Reaction specificity of TQ Green: BSA; design: species or system bovine; settings: 5 mM BSA, PBS pH 7.4
# Protocol: (§1) For clarity, data points for TQ Green reaction with BSA, Cysteine, and PBS were offset by 0.1 units from each other on the y axis. Data points represent the absorbance of reaction mixtures of TQ Green (32 μM) with cysteine (100 μM, blue), BSA (5 mM, green), GSH (20 mM red) and water (black) in PBS (pH 7.4) at 480 nm, the maximum absorption wavelength for TQ Green.
# Proteins containing free thiol groups may also react with TQ Green to affect the measurement of GSH levels. On average, the protein concentration inside cells is 3×10^6 molecules/μm^3, which corresponds to a concentration of 5 mM. Assuming there is one free thiol on each protein molecule, 5 mM of bovine serum albumin (BSA) solution should reasonably mimic intracellular proteins because a) BSA has a free thiol on its surface; and b) the molecular weight of BSA (65 kDa) is close to the average molecular weight of intracellular proteins (˜50 kDa). […] Through these experiments and analyses, Applicants can conclude that TQ Green has good specificity towards GSH under physiological conditions.
# [4] = Reaction kinetics and reversibility of probe with GSH (UV-Vis)
# Protocol: The reaction between TQ Green and GSH is reversible.
# The second-order rate constant between TQ Green and GSH is 0.150±0.001M^−1·s^−1. There were no appreciable Abs changes observed after 20 minutes. Following a pause for another 80 minutes to ensure that the equilibrium between TQ Green and GSH was fully established, Applicants added two equivalents of an irreversible Michael acceptor (5,6-dihydro-2H-pyran-2-one) to deplete all the GSH in solution (FIG. 4A).
# GSH in PBS was added to a solution of TQ Green in PBS buffer (10 mM, pH 7.4) containing 1% DMSO. The final concentrations of GSH and TQ Green were 10 mM and 16 μM, respectively. The solutions were then monitored continuously with UV-Vis spectrometer (FIGS. 21A-D).
# [5] = Reaction specificity of TQ Green: cysteine; settings: 0.1 mM cysteine, within 2 hours, PBS pH 7.4
# Protocol: as §1
# Free cysteine and the surface exposed cysteine residues on proteins inside cells could potentially compete with GSH in TQ Green reactions. It is known that, in contrast to the 1-10 mM concentrations of GSH inside cells, cysteine concentrations are in the range of 0.1-1 mM, approximately an order of magnitude lower than GSH levels. Assuming cysteine and GSH have similar reactivities, the presence of cysteine will introduce an error no more than 10%.
# [6] = Solubility; assay type: physicochemical; settings: PBS buffer, aqueous buffer
# Chain of BSA (P02769 25-607): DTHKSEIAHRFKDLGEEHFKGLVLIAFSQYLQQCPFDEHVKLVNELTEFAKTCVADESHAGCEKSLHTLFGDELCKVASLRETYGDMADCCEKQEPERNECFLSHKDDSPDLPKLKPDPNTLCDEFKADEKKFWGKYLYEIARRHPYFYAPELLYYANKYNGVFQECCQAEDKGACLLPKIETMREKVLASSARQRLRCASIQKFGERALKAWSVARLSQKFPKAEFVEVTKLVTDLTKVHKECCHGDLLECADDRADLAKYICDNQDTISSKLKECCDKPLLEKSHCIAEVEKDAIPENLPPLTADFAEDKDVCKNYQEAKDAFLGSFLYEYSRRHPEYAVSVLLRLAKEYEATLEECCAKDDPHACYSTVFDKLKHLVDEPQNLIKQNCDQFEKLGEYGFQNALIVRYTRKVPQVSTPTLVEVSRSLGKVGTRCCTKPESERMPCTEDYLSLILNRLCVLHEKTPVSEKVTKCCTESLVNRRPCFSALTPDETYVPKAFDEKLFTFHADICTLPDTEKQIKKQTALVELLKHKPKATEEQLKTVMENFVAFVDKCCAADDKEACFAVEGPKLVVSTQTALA
structure (smiles),measurement,setting,value
CCN(CC)c1ccc2cc(/C=C/C(=O)c3ccc(C(=O)O)cc3Br)c(=O)oc2c1 [TQ Green],Abs Max Wavelength,[1]; PBS pH 7.4,479 nm and 480 nm
same,Fl Emission Max Wavelength,"[1]; PBS pH 7.4, λex = 488 nm (TQ Green), λex = 405 nm (TQ Green-GSH)",590 nm
same,Quantum Yield (PBS),[1],0.0094±0.0004
same,Quantum Yield (PBS),[1]; listed as drawing 19,0.0094 ± 0.0004
same,Quantum Yield (Methanol),[1],0.16±0.05
same,Quantum Yield (Methanol),[1]; listed as drawing 18,0.16 ± 0.05
same,Absorbance maximum in octanol,[1]; octanol,455 nm
same,Kd,"[2]; deduced from Kd′ and absorption values at 488 nm, read-out: Kd (equilibrium dissociation constant)",1.6 mM
same,Kd,"[2]; reaction with various concentration of GSH in water/PBS pH 7.4, based on UV-Vis, read-out: Kd′ observed (apparent) dissociation constant",14.8 mM
same,Reaction with BSA,[3],little reaction
same,Time to reach 95% of conversion,"[4]; 10 mM GSH in PBS, room temperature, TQ Green 16 μM, probe 3a 10 μM",~30 min
same,Time to establish equilibrium with GSH,"[4]; 37° C., intracellular environment, extrapolated",15 to 30 min
same,Second-Order Rate Constant,[4]; TQ Green and GSH,0.150 ± 0.001 M⁻¹ s⁻¹
same,Reaction with cysteine,[5],did not observe appreciable reactions
same,solubility,[6],> 500 µM
